Experimental data from PubChem BioAssay (NCI).
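Grown in 96-well plates, cells were treated for 48 hours with each compound at five concentrations. Insufficient inhibition: endpoint recorded as highest concentration tested. At the TGI there is no net growth.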

Tests used:
Assay in all cases: growth of human tumour cells (NCI), 48 h
[1] = test system: BT-549 breast
[2] = test system: HT29 colon
[3] = test system: MCF7 breast
[4] = test system: NCI-H460 lung
[5] = test system: OVCAR-3 ovarian
[6] = test system: OVCAR-4 ovarian
[7] = test system: PC-3 prostate
[8] = test system: SF-539 CNS
[9] = test system: SN12C renal
[10] = test system: UACC-257 melanoma

Row | Compound | TGI [1] [µM] | TGI [2] [µM] | TGI [3] [µM] | TGI [4] [µM] | TGI [5] [µM] | TGI [6] [µM] | TGI [7] [µM] | TGI [8] [µM] | TGI [9] [µM] | TGI [10] [µM]
1 | O=C(NCCCCCCO)c1cccc2cc3ccccc3nc12 | 33.2 | 36.6 | 39.3 | 39 | 36.5 | 66.2 | 31.9 | 33.7 | 49.5 | 33.9
2 | C[C@]12CC[C@H]3[C@@H](CCC4=C(Br)C(=O)C=C[C@@]43O)[C@@H]1CCC2=O | 81.1 | > 100 | > 100 | 63.4 | > 100 | > 100 | > 100 | > 100 | > 100 | 63.8
3 | O=C1C(Cl)=C(c2ccc([N+](=O)[O-])cc2)C(=O)c2c(O)cccc21 | 4.72 | 7.37 | 14.2 | 6.99 | 3.11 | 4.62 | 7.28 | 1.13 | 10.7 | 4.84
